Test results reported in patent publication US9314439B2, “Composition and method for muscle repair and regeneration” (Thomas Jefferson University, priority 2010, dated 2016).
“Also recorded” adds a separate entry of the source.

Key:
[1] = system: muscle defect in calf or anterior tibial muscles; assay: muscle defect mouse model, systemic or local administration of RAR agonist; assay type: in vivo; settings: for muscle repair: 100 μg/gavage/day at day 8, 10 and 12 from injury, 4 weeks after surgery
Excerpt: Histological Procedures. To inspect muscle tissue structure, samples were fixed in 4% PFA and embedded in paraffin. Five μm serial sections were stained by either H&E (http://www.ihcworld.com/_protocols/special_stains/HE_Mayer.htm) or Masson's trichrome staining solution (http://www.ihcworld.com/_protocols/special_stains/masson_trichrome.htm). To detect adipose tissue, 4% PFA fixed samples were equilibrated in 20% sucrose in PBS, embedded in OCT compound and then sectioned by cryostat. Ten μm cryosections were dried, rehydrated and then stained with Oil-red O (http://www.ihcworld.com/_protocols/special_stains/oil_ red o.htm).
Immuno-Fluorescence. For the detection of various antigens in tissue sections, 5 μm paraffin sections were de-paraffinized, re-hydrated and then treated with 0.1% pepsin in 0.02 N HCl for 15 min at 37° C. Sections were washed three times in PBS-T and blocked in 10% normal goat serum with 0.3% BSA. Sections were incubated with 1st antibody, washed three times with PBS-T and then incubated with 2nd antibody. The list of antigens, antibodies and their dilutions are shown below.
Local and Systemic Administration of RAR Agonist. Systemic administration of RAR agonist was carried out by gavage as described previously (Shimono et al. J. Orthop. Res. 28:271-277, 2010). Local delivery of RAR agonist was done by injecting RAR agonist (dissolved in DMSO) using Hamilton syringe 87943 with 26G needle.
A muscle defect mouse model was used to investigate the muscle repair stimulation by administration of RAR gamma-agonists. A round-shaped defect was created with an electric cautery in calf or anterior tibial muscles in 8 week-old mice resulting in a 2.0 mm×2.0 mm×2.0 mm defect.
Round-shaped defects were created in calf-muscle tissue of 8 weeks old mice as above (one muscle defect/mouse). […] Tissue was collected for histological analysis on day 14.
[…] Tissues were collected for histological analysis at 2 and 4 weeks. Macro-photos of injured muscle tissue collected from control and RAR gamma-agonist (CD1530)-treated mice were taken at 4 weeks after injury.
Histological analysis of skeletal muscle tissue was performed 4 weeks after injury. Serial transverse sections of muscle tissue specimens collected 4 weeks after injury (same samples as discussed directly above) were stained with Masson's trichrome or processed for immuno-staining with antibodies to laminin (an extracellular protein abundant around muscle cells). […] To evaluate and quantify the changes of skeletal muscle tissue structure, images of trichrome-stained serial sections were taken and the relative amounts of muscle fiber, adipose and fibrous tissues were determined in multiple defined areas by ImagePro software. The analyzed areas were 9×9 grids each (about 3×3 mm) that included the original injured site (2×2 mm).
The effects of various retinoid agonists on skeletal muscle repair were examined Macro photographs were taken of muscle injury sites at the 4-week time point.

[2] = system: mouse bone marrow-derived mesenchymal stem cell (BMSC) cultures; assay: myogenic differentiation in mouse BMSC cultures; assay type: cell-based; settings: 7 days, 5% FBS DMEM
Protocol: MSCs were isolated as described previously (ref) with minor modification. Briefly, mouse bone marrow cells (1−2×10^7) harvested from long bones of 4-6 weeks old mice were seeded onto 100-mm culture dishes, incubated for 3 hours at 37° C. to allow attachment of adherent cells, and then rinsed twice with PBS to remove the nonadherent cells. The bone marrow-derived MSCs formed adherent colonies after 12-15 days of culture. Primary cultures were passed to disperse the colony-forming cells (passage 1). The cells were then subcultured again when they reached 70% confluent. Cells were maintained in α-MEM (Gibco BRL; Invitrogen Corp.) containing 20% fetal bovine serum (FBS; Equitech-Bio Inc.), 2 mM L-glutamine, a combination of 100 U/ml penicillin and 100 μg/ml streptomycin (Biofluids Inc.), and 55 μM 2-mercaptoethanol (Gibco BRL; Invitrogen Corp.) before the first passage. After the first passage, cells were maintained in 10% FBS, α-MEM unless indicated.
The differential effects of retinoid agonists on myogenic differentiation in mouse bone marrow-derived mesenchymal stem cell (BMSC) cultures were investigated. BMSCs were prepared from femurs and tibias of 6 week-old mice by standard methods and maintained in 5% FBS DMEM for 7 days in presence of 0.1% DMSO (vehicle: Control), 1 μM all-trans retinoic acid (RA) (commercially available from Sigma), 1 μM RAR alpha-agonist (obtained from NuRx Pharmaceuticals) or 30 nM RAR gamma-agonist (CD1530, commercially available).

[3] = system: mesenchymal stem cell line; assay: MyoD and Myf5 immunostaining in mesenchymal stem cell (MSC) cultures; assay type: cell-based; settings: 100 nM, 10 days
Protocol: Cells from a mesenchymal stem cell line were cultured for 10 days in the presence or absence of RAR gamma-agonist (CD1530, 100 nM). Cultures were processed for immunostaining with MyoD or Myf5 antibodies or stained with nuclear dye DAPI. […] Results indicated an increase in MyoD and Myf5 levels by the RAR gamma-agonist in mesenchymal stem cell (MSC) cultures.

[4] = system: RAR subtypes; settings: cited from earlier work
[5] = system: RXR receptors; settings: cited from earlier work
[6] = 100 ng on day 5, 7 and 9, 4 weeks after injury
[7] = 300 μg by gavage on day 8, 10 and 12, 4 weeks after injury
[8] = 300 μg/day by gavage on day 8, 10 and 12, 4 weeks after injury
[9] = 900 μg by gavage on day 8, 10 and 12, 4 weeks after injury

For `CC1(C)CCC(C)(C)c2cc(Cn3cccn3)c(/C=C/c3ccc(C(=O)O)cc3)cc21` [Palovarotene, 4-[(E)-2-[5,6,7,8-Tetrahydro-5,5,8,8-tetramethyl-3-(1H-pyrazol-1-ylmethyl)-2-naphthalenyl]-ethenyl]-benzoic acid], the muscle repair [1] was “induced effective muscle repair”.

For `O=C(O)c1ccc(-c2ccc3cc(O)c(C45CC6CC(CC(C6)C4)C5)cc3c2)cc1` [CD1530, 4-(6-Hydroxy-7-tricyclo[3.3.1.13,7]dec-1-yl-2-naphthalenyl)benzoic acid], the “formation of elongated multinucleated muscle cells” value (“formation” below) ([2]; 30 nM) was “Many elongated multinucleated muscle cells formed”, the “HE histology of muscle defect” value ([1]; 100 ng on day 1, 3, 5, 7 and 9, 4 weeks after injury) was “decreased adipose and fibrous scar tissue formation but left a large indentation” and the “HE histology of muscle defect” value ([1]; 100 ng on day 1, 3 and 5, 4 weeks after injury) was “decreased adipose and fibrous scar tissue formation but left a large indentation”. The “indentation at muscle defect” value [1, 6] was “much reduced indentation”, the “quality and amount of newly formed muscle tissue” value [1, 6] was “best” and the “repair of muscle defects after local administration” value ([1]; 3 μg injected subcutaneously around the injury site on day 8 and 10, 4 weeks) was “almost completely repaired”. The “macroscopic appearance of injury site” value [1, 7] was “almost no visible sign of the original defect; also recorded: essentially invisible”, the “tissue composition (relative amounts of muscle fiber, adipose and fibrous tissues, ImagePro)” value [1, 7] was “largely restored the tissue composition; also recorded: almost normal” and the “anti-laminin staining of repair tissue” value [1, 8] was “stained strongly with anti-laminin antibodies”. For the same compound, the “repair of muscle injury (Masson's trichrome sections)” value [1, 8] was “almost completely repaired”, the “amount of adipose and fibrous tissue (histo-morphometric analysis, ImagePro)” value ([1]; Day 5-9 treated group, Masson's trichrome, FIG. 6) was “least amount of adipose and fibrous tissue among all injured groups” and the “histological analysis of muscle defect” value ([1]; anterior tibial muscle, 300 μg/day by gavage on day 8, 10 and 12, 2 and 4 weeks) was “filled with muscle fibers aligned along the major longitudinal axis of the anterior tibial muscle”. For the same compound, the “myosin heavy chain (MHC) immunostaining of defect site” value ([1]; calf muscle, 300 μg/day by gavage on day 8, 10 and 12, day 14) was “many of these cells were MHC positive”, the “histology of muscle defect site” value ([1]; calf muscle, 300 μg/day by gavage on day 8, 10 and 12 after injury, day 14) was “filled with many elongated muscle-like cells” and the “HE histology of muscle defect” value ([1]; treated at days 1-3, 4 weeks after injury) was “decreased adipose and fibrous scar tissue formation but left a partial defect”. For the same compound, the “HE histology of muscle defect” value ([1]; treated at days 5-7, 4 weeks after injury) was “completely filled with newly generated muscle fibers”, the Myf5 immunostaining [3] was “clearly present” and the MyoD immunostaining [3] was “clearly present”.

For `CC1(C)CCC(C)(C)c2c1cc(C(=O)Nc1cc(F)c(C(=O)O)c(F)c1)c(O)c2Cl` [NRX195183], the “formation” value ([2]; 1 μM) was “formed only in RAR gamma-agonist treated cultures”, the “macroscopic appearance of injury site” value [1, 9] was “still clearly visible as large whitish spots” and the “tissue composition (histomorphometric quantification)” value [1, 9] was “did not improve tissue composition”.

With `CC1=C(/C=C/C(C)=C/C=C/C(C)=C/C(=O)O)C(C)(C)CCC1` [RA, all-trans retinoic acid] the “formation” value ([2]; 1 μM) was “formed only in RAR gamma-agonist treated cultures”, the fibrous tissue area ([1]; 300 μg by gavage on day 8, 10 and 12, 4 weeks) was “significant increase of fibrous tissue area” and the “macroscopic appearance of injury site” value [1, 7] was “still clearly visible as large whitish spots”. The muscle fiber area ([1]; 300 μg by gavage on day 8, 10 and 12, 4 weeks, control 33%, normal 90%) was 54%, the “binding affinity to the three RAR subtypes” value [4] was “approximately equal affinity” and the “binding to the RXR receptors” value [5] was “does not bind”.

For `CC1=C(/C=C/C(C)=C\C=C\C(C)=C\C(=O)O)C(C)(C)CCC1` [9-cis retinoic acid], the “binding to the RXR receptors” value [5] is given as “natural ligand”.

In the case of `O=C(O)c1ccc2cc(-c3ccc(O)c(C45CC6CC(CC(C6)C4)C5)c3)ccc2c1` [CD437, 6-(4-Hydroxy-3-tricyclo[3.3.1.13,7]dec-1-ylphenyl)-2-naphthalenecarboxylic acid], the muscle repair [1] is reported as “induced effective muscle repair”.
